Measurements: BindingDB's records for PubMed 1513320 (Synaptic Pharmaceutical, 1992)

These compounds were tested against 5-hydroxytryptamine receptor 1E (Homo sapiens, UniProt P28566).
Sequence of 5-hydroxytryptamine receptor 1E (P28566 whole entry): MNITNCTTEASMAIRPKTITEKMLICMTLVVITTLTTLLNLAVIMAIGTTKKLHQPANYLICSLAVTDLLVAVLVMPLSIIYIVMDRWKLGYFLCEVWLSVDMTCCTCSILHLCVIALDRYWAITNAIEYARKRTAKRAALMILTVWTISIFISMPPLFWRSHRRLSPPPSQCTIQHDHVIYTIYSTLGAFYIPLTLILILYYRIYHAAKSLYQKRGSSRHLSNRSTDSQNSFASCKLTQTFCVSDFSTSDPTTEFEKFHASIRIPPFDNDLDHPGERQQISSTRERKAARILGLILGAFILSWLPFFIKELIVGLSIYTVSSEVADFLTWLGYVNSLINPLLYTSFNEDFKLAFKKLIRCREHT
`COc1cc(N)c(Cl)cc1C(=O)NC1CN2CCC1CC2` (stereo not drawn) [ZACOPRIDE,R] gave a Ki greater than 10 µM. For `COC(=O)[C@@H]1[C@H]2C[C@H]3c4[nH]c5ccccc5c4CCN3C[C@@H]2CC[C@@H]1O` [yohimbic acid methyl ester], the Ki was 3.43 µM. For `NCCc1c[nH]c2ccc(C(N)=O)cc12` [[3H]-5-carboxamidotryptamine], the Ki was greater than 10 µM. In the case of `CC(C)NCC(O)COc1cccc2[nH]ccc12` (stereo not drawn) [LB-46], the Ki is reported as greater than 10 µM. With `Cn1cc(CCN)c2cc(O)ccc21` [5-HT,omega-N-Me] the Ki was 0.121 µM. For `CCC(=O)c1ccc(N)cc1` [CAS_6270], the Ki was greater than 10 µM. Work on `O=C(c1ccc(F)cc1)C1CCN(CCn2c(=O)[nH]c3ccccc3c2=O)CC1` [3-(2-{4-[(4-fluorophenyl)carbonyl]piperidin-1-yl}ethyl)-1,2,3,4-tetrahydroquinazoline-2,4-dione] yielded a Ki greater than 10 µM. For `CC(CO)NC(=O)C1C=C2c3cccc4[nH]cc(c34)CC2N(C)C1` (stereo not drawn) [CAS_60-79-7], the Ki was 0.088 µM.
